Assay results: PubChem BioAssay (NCI)
Values joined by “and” are separate entries in the source; they are usually repeats but may differ in a detail not shown here. Equal entries are not always repeated.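 Five concentrations, 48 hours, 96-well plates. At the GI50, growth is halved. Definition used: TGI = concentration required for complete inhibition of growth.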

Key:
Experiment in all cases: NCI anticancer screen, dose series, 48 h
SK-MEL-28 melanoma = test system: SK-MEL-28 melanoma
OVCAR-5 ovarian = test system: OVCAR-5 ovarian
HOP-92 NSCLC = test system: HOP-92 NSCLC
SN12C renal = test system: SN12C renal
IGROV1 ovarian = test system: IGROV1 ovarian
SK-OV-3 ovarian = test system: SK-OV-3 ovarian
K-562 leukemia = test system: K-562 leukemia
SR leukemia = test system: SR leukemia
PC-3 prostate = test system: PC-3 prostate
DU-145 prostate = test system: DU-145 prostate

Compound | TGI (SK-MEL-28 melanoma) | TGI (OVCAR-5 ovarian) | TGI (HOP-92 NSCLC) | TGI (SN12C renal) | TGI (IGROV1 ovarian) | TGI (SK-OV-3 ovarian) | TGI (K-562 leukemia) | TGI (SR leukemia) | GI50 (SK-MEL-28 melanoma) | GI50 (PC-3 prostate) | TGI (PC-3 prostate) | GI50 (OVCAR-5 ovarian) | GI50 (SN12C renal) | GI50 (DU-145 prostate) | TGI (DU-145 prostate) | GI50 (IGROV1 ovarian) | GI50 (SK-OV-3 ovarian) | GI50 (K-562 leukemia) | GI50 (SR leukemia) | GI50 (HOP-92 NSCLC)
CC(C)(C)C(=O)Nc1ccccc1Br | > 100 µM | > 100 µM | > 100 µM | > 100 µM | > 100 µM | > 100 µM | > 100 µM |  |  |  |  |  |  |  |  |  |  |  |  | 
Cc1ccc(C2=[N+]([O-])c3ccccc3C2=O)cc1 | 22 µM | > 89.9 µM | 39.2 µM | 37.8 µM | 43 µM | > 100 µM | 41 µM | > 100 µM |  |  |  |  |  |  |  |  |  |  |  | 
Cc1ccc(C)c(-n2c(-c3ccc(Br)cc3)csc2=NC(=O)c2ccccc2F)c1 | > 100 µM | > 100 µM |  | > 100 µM | > 100 µM | > 100 µM | > 100 µM |  | > 100 µM | 3.29 µM | > 100 µM | > 100 µM | > 100 µM | > 100 µM | > 100 µM | > 100 µM | > 100 µM | 3.47 µM |  | 
Brc1nc2c3ccccc3ncn2c1Br | > 100 µM | > 100 µM | 76.5 µM | > 100 µM | > 100 µM | > 100 µM | > 100 µM | > 100 µM |  |  |  |  |  |  |  |  |  |  |  | 
Nc1ccc(CCN2CCN(c3cccc(C(F)(F)F)c3)CC2)cc1 | > 100 µM | > 100 µM | > 100 µM | > 100 µM | > 100 µM | > 100 µM | > 100 µM | > 100 µM |  |  |  |  |  |  |  |  |  |  |  | 
CCC12CCC(O)C1N(C)CCC2Sc1ccccc1 (stereo unspecified) | > 100 µM |  | 94.3 µM | > 100 µM | > 100 µM | > 100 µM | > 100 µM |  |  |  |  |  |  |  |  |  |  |  |  | 
COCC1N=C(c2ccc(OC)c(OCc3ccccc3)c2OC)O[C@H]1c1ccccc1 (stereo partly specified) | 69.8 µM | 71.2 µM | 42.4 µM | 66.4 µM | > 100 µM | 96.1 µM | > 100 µM |  |  |  |  |  |  |  |  |  |  |  |  | 
O=NN(CCCl)C(=O)NCc1ccc[n+]([O-])c1 | > 100 µM | > 100 µM | > 100 µM | > 100 µM | > 100 µM | > 100 µM | > 100 µM | > 100 µM |  |  |  |  |  |  |  |  |  |  |  | 
CC1=C2C(=CC(C)(CO)C2O)C(=O)C(C)(O)C12CC2 (stereo unspecified) | 0.0138 µM | 0.0258 µM | 0.0144 µM | 0.118 µM | 0.106 µM | 0.0424 µM | 0.105 µM | 0.146 µM |  |  |  |  |  |  |  |  |  |  |  | 
COC(=O)[C@H](C)[C@H]1CC[C@@](C)([C@H]2CC3C(C)(C)[C@H]4CCC(C)=C[C@H]4C[C@@]3(C)O2)OO1 (stereo partly specified) | 31 µM | 26.2 µM | 12.4 µM | 24 µM | 11.1 µM | 56.6 µM | 24.2 µM | 30.5 µM |  |  |  |  |  |  |  |  |  |  |  | 
Cc1ccc2c(/C=C/C(=O)c3cc(CN4CCOCC4)c(O)c4nc(C)ccc34)cc(CN3CCOCC3)c(O)c2n1 | 12 µM | 13.1 µM | 9.78 µM | 12.4 µM | 3.6 µM |  | 17.1 µM | 11.9 µM | 1.08 µM | 0.577 µM | 19.1 µM | 1.55 µM | 0.683 µM |  |  | 0.622 µM |  | 0.355 µM | 0.318 µM | 1.11 µM
NC(=O)c1csc(C2O[C@@H](COP(=O)(O)OP(=O)(O)OC[C@H]3OC(n4cnc5c(N)ncnc54)[C@H](O)[C@@H]3O)[C@H](O)[C@@H]2O)n1 (stereo partly specified) | > 100 µM | > 100 µM | > 100 µM | > 100 µM | > 100 µM | > 100 µM | > 100 µM |  |  |  |  |  |  |  |  |  |  |  |  | 
O=C(Nc1ccccc1)O/N=C1/CCCC/C1=C\c1ccccc1 | 31.8 µM | 63.9 µM | 46 µM | 31 µM | 17.7 µM | 35.6 µM | 29.1 µM | 43.6 µM |  |  |  |  |  |  |  |  |  |  |  | 
O=C(Nc1cccc(C2=NCCN2)c1)c1ccc(OCCCOc2ccc(C(=O)Nc3cccc(C4=NCCN4)c3)cc2)cc1 |  | 20.4 µM | 7 µM |  |  | 5.41 µM | > 100 µM | > 100 µM |  | 2.78 µM | 8.21 µM | 3.51 µM |  |  |  |  | 2.39 µM | 1.25 µM | 1.96 µM | 1.25 µM
COc1cccc(/C=C\c2cc(OC)c(OC)c(OC)c2)c1 | 7.15 µM | 63.6 µM | > 100 µM | > 100 µM | > 100 µM | > 100 µM | 43.7 µM | 27.5 µM |  |  |  |  |  |  |  |  |  |  |  | 
Cc1c2cc[n+](C)cc2c(C)c2c1[nH]c1ccc(OC(C)C)cc12 | 12.4 µM and 17.3 µM | > 100 µM and 67.3 µM | 13.5 µM and 16.8 µM | 7.69 µM and 9.59 µM | 22.3 µM and 29.5 µM | > 85.5 µM | > 46.4 µM | 10.5 µM and > 54.3 µM |  |  |  |  |  |  |  |  | 1.98 µM and 4.47 µM | 1.02 µM and 2.55 µM | 2.34 µM and 9.55 µM | 
